The text below walks through data of US6506789B2, “Methods for the treatment of itching comprising administering PGD2 receptor antagonist” (Shionogi & Co., Ltd., priority 1998, dated 2003).

The target of experiment [1] is T1, PGD2 receptor (Homo sapiens, UniProt Q13258).
T1 construct: The platelets mere homogenized using a homogenizer (Ultra-Turrax) followed by centrifugation 3 times at 20,000 rpm, 10 min at 4° C. to obtain a platelet membrane fraction; from tissue; host or cells: human platelets from venous blood of healthy volunteers (membrane fraction)
T1 sequence (Q13258 1-359): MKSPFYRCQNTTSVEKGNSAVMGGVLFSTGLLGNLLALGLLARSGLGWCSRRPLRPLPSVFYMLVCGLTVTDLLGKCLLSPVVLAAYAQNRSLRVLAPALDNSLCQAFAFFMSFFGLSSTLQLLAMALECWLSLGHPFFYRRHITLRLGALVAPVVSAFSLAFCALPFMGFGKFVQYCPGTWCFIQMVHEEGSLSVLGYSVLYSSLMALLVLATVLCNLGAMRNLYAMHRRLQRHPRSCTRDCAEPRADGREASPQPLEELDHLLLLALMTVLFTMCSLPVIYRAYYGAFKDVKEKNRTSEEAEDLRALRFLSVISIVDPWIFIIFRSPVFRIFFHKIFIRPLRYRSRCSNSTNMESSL
As to the kind of experiment: Binding to PGD2 receptor ([3H]PGD2, human platelet membrane fraction). As to conditions: 5 nM [3H]PGD2, 4° C., 90 min, read-out: IC50 (concentration required for 50% inhibition of [3H]PGD2 binding). The method, then:
(1) Preparation of Human Platelet Membrane Fraction
Blood sample was obtained using a plastic syringe containing 3.8% sodium citrate from the vein of healthy volunteers (adult male and female), put into a plastic test tube and mixed gently by rotation. The sample was then centrifuged at 1800 rpm, 10 min at room temperature and the supernatant containing PRP (platelet-rich plasma) was collected. The PRP was re-centrifuged at 2300 rpm, 22 min at room temperature to obtain platelets. The platelets mere homogenized using a homogenizer (Ultra-Turrax) followed by centrifugation 3 times at 20,000 rpm, 10 min at 4° C. to obtain a platelet membrane fraction. After protein determination, the membrane fraction was adjusted to 2 mg/ml and preserved in a refrigerator at −80° C. until use.
(2) Binding to PGD2 Receptor
To a binding-reaction solution (50 mM Tris/HCl, pH 7.4, 5 mM MgCl2) (0.2 ml) were added the human platelet membrane fraction (0.1 mg) and 5 nM [^3H]PGD2 (115 Ci/mmol). After reacting at 4° C. for 90 min, the mixture was filtered through a glass fiber filter paper and washed several times with cooled saline, to measure the radioactivity retained on the filter paper. The specific binding was calculated by subtracting the non-specific binding (the binding in the presence of 10 μM PGD2) from the total binding. The inhibitory activity of each compound was expressed as the concentration required for 50% inhibition (IC50), which was determined by depicting a substitution curve by plotting the binding ratio (%) in the presence of each compound, where the binding ratio in the absence of a test compound is 100%.

The test system of experiment [2] is PGD2-induced itching. To be noted: guinea pig; J. Pharmacol. Exp. Ther., 279, 137-142, 1996; cited from earlier work.
Experiment [3] concerns itching caused by antigens. As to conditions: J. Pharmacol. Exp. Ther., 279, 137-142, 1996; cited from earlier work.
Experiment [4] concerns Compound 48/80-induced scratching behavior. As to the kind of experiment: Mouse pruritus model: compound 48/80-induced scratching behavior. Type of experiment: in vivo. The method, then:
Investigation on Itch-Related Scratching Behavior in Mouse Pruritus Model: Effect on Compound 48/80-Induced Scratching Behavior Compound 48/80 (10 μg/site, Sigma), a non-immunological mast cell activator, was dissolved in physiological saline and subcutaneously injected into the rostral part of the back of female C57BL mice (8-12 weeks of age, Charles River Japan Inc.). […] Mice usually scratched several times successively in one behavior and a series of scratching was counted as one incidence. Compound Treatment Compound (IA-a-5), suspended in 0.5% methylcellulose, was orally administered 1 hour before the injection of compound 48/80 at a dose of 300 mg/kg. As a control, mice were treated with 0.5% methlycellulose. Results were shown in Table 16. *: P<0.05 versus control (Wilcoxon test).

Experiment [5] concerns Antigen-induced scratching behavior. The experiment can be described thus: Mouse pruritus model: antigen-induced scratching behavior. Type of experiment: in vivo. To be noted: female C57BL mice, observed 15 minutes, n = 7, control 51.6 ± 5.3. Here is the method: Investigation on Itch-Related Scratching Behavior in Mouse Pruritus Model: Effect on Antigen-Induced Scratching Behavior 50 μl of diluted anti-benzylpenicilloyl (BPO) IgE monoclonal antibody was intradermally injected to the rostral part of the back skin of female C57BL (Table 17, 8-12 weeks of age, Charles River Japan Inc.) or male DS-Nh (Table 18, 7-8 weeks of age, Aburahi Laboratories, Shionogi & Co., Ltd.) mice. Twenty-four hours later, scratching behavior was induced by intravenously injection of physiological saline containing 1 mg of BPO-guinea pig serum albumin. […] In Table 17, the compound was treated in the same manner described in above 1). In Table 18, the compound were dissolved in physiological saline and intraperitoneally injected 30 minutes before antigen challenge. *: P<0.05, **: P<0.01 versus control (Dunnett's test).

Marks after values point to notes of the source that are not given here.

`CC1(C)[C@H]2C[C@H](C/C=C/CCCC(=O)O)[C@@H](NC(=O)c3csc4ccc(O)cc34)[C@@H]1C2` (single isomer, unassigned) [IA-a-18]: the IC50 in experiment [1] came to 1.2 nM. Consider `O=C(O)CCCCCCC1C(=O)N(Cc2ccccc2)C(=O)N1NCC(O)C1CCCCC1` (stereo not drawn) [BWA868C], for which, in experiment [2], the “inhibition of itching induced by instillation of PGD2” value was “inhibited”. Also, the “inhibition of itching caused by antigens” value in experiment [3] is listed as “can not inhibit”. Regarding `CC1(C)[C@H]2C[C@H](C/C=C\CCCC(=O)O)[C@@H](NC(=O)c3csc4ccc(O)cc34)[C@@H]1C2` [IA-a-5, (5Z)-7-[(1R,2R,3S,5S)-2-(5-hydroxybenzo[b]thiophen-3-yl-carbonylamino)-6,6-dimethylbicyclo[3.1.1]hept-3-yl]-5-heptenoic acid], in experiment [4] (Experiment 2, summary in words), the “scratching caused by skin itching derived from the activation of mast cell, compared with the control group” value is reported as “reduced”. The “Mean ± S.E. (Number of scratching)” value is recorded as 81.8 ± 17.9* in experiment [4] (female C57BL mice, 300 mg/kg orally 1 hour before compound 48/80, observed 30 minutes, n = 10, control 122.2 ± 12.7); 48.4 ± 12.4 in experiment [5] (100 mg/kg orally); 19.6 ± 6.5* in experiment [5] (300 mg/kg orally). In the case of `CC1(C)[C@H]2C[C@H](C/C=C\CCCC(=O)O)[C@@H](NC(=O)c3csc4ccc(F)cc34)[C@@H]1C2` [IA-a-11], the IC50 in experiment [1] stood at 0.27 nM. The same measure, in the same setting: in the case of `CC1(C)[C@H]2C[C@H](C/C=C/CCCC(=O)O)[C@@H](NC(=O)c3csc4ccc(O)cc34)[C@@H]1C2` [IA-a-17, (5E)-7-[(1R,2R,3S,5S)-2-(5-hydroxybenzo[b]thiophen-3-yl-carbonylamino)-6,6-dimethylbicyclo[3.1.1]hept-3-yl]-5-heptenoic Acid] it was 32 nM; in that of `CC1(C)[C@H]2C[C@@H](C/C=C\CCCC(=O)O)[C@@H](NC(=O)c3csc4ccc(O)cc34)[C@@H]1C2` [IA-c-1], 28 nM; in that of `CC1(C)[C@H]2C[C@@H](C/C=C/CCCC(=O)O)[C@@H](NC(=O)c3csc4ccc(O)cc34)[C@@H]1C2` [IA-c-2], 1 nM. For `CC1(C)[C@H]2C[C@H](NC(=O)c3csc4ccc(F)cc34)[C@@H](C/C=C\CCCC(=O)O)[C@@H]1C2` [IB-a′-2], the IC50 in experiment [1] is 37 nM.
